How the values were obtained:
[1] = Ferric-reducing antioxidant power (FRAP) assay; conditions: concentration indicating 0.50 absorbance, 700 nm; maximum tested 200 µg/mL
Method: The ferric-reducing antioxidant power (FRAP) assay was carried out according to [119]. The reaction mixture contained 10 μL of the extracts, 40 µL phosphate buffer (pH 6.6), and 50 μL potassium ferricyanide K3[Fe (CN)6] (1%), was incubated at 50 °C for 20 min, then 50 µL of trichloroacetic acid (TCA) (10%) and 40 µL of distilled water and 10 µL of ferric chloride FeCl3 (0.1%) were added. Then, the absorbance was measured at 700 nm using a microplate reader of type PerkinElmer (Enspire) against a blank. Tannic acid, α-tocopherol, and ascorbic acid were used as references.
The results of the tests carried out are expressed as an average ± SD of analyses in three tests. […] The one-way analysis of variance ANOVA was used to detect significant differences (p < 0.05).

[2] = DPPH radical scavenging assay; conditions: 30 min, 517 nm
Method: The ability of radical scavenging was determined according to [118], using the radical DPPH• (2,2-diphenyl-1-picrylhydrazyl). 160 µL of DPPH solution (0.15 mM) was added to 40 µL of the diluted extracts in methanol and incubated in the dark. After 30 min of incubation, the absorbances were measured at 517 nm by a microplate reader of type PerkinElmer (Enspire) against a blank. BHA, BHT, and α-tocopherol were used as reference antioxidants. DPPH inhibition percentage was calculated using the following equation:(3) Inhibition(%)=A0−As/A0×100 where A0 is the absorbance of the control (without the sample) and As is the absorbance of the tested samples. The antioxidant activity of the extracts and standards was expressed as IC50 (the concentration of the tested samples that inhibits 50% of DPPH radicals).
(§1) The results of the tests carried out are expressed as an average ± SD of analyses in three tests. The values of IC50 (50% inhibition concentration) and A0.5 (the concentration indicating 0.50 absorbance) are calculated using the linear regression method from the two curves: [% inhibition = f (concentration)] for IC50 and [Absorbance = f (concentration)] for A0.5. All the antioxidant and enzymatic tests were carried out at more than four concentration values. The one-way analysis of variance ANOVA was used to detect significant differences (p < 0.05).

[3] = ABTS+ scavenging activity; conditions: 10 min, 734 nm
Method: The ABTS•+ assay (2, 2′-azino-bis (3-ethylbenzthiazoline-6-sulfonic acid)) was carried out according to the method with some modifications. The ABTS+ reagent was prepared as follows: 19.2 mg of ABTS (7 mM) in 5 mL distilled water was mixed with 3.3 mg of Potassium persulfate K2S2O8 (2.45 mM) in 5 mL distilled water, and the mixture was incubated for 16 h in the dark before use. We have added 160 µL of ABTS+ reagent to 40 μL of extract solutions. After 10 min of incubation, the absorbance was read at 734 nm using a microplate reader of type PerkinElmer (Enspire). BHA and BHT were used as references. The total antioxidant activity of the extracts was calculated as follows:(4) ABTS^+scavenging effect (%)=AControl−ASample/AControl×100
as §1

Compound | FRAP A0.5 [1] [µg/mL] | DPPH Inhibition IC50 [2] [µg/mL] | ABTS Inhibition IC50 [3] [µg/mL]
O=C1O[C@H]([C@@H](O)CO)C(O)=C1O [Ascorbic acid] | 6.77 ± 1.15 |  | 
COc1ccc(O)c(C(C)(C)C)c1 [BHA, Butylated hydroxyanisole] |  | 6.14 ± 0.41 | 1.81 ± 0.10
Cc1cc(C(C)(C)C)c(O)c(C(C)(C)C)c1 [BHT, hydroxytoluene] |  | 12.99 ± 0.41 | 1.29 ± 0.30
Tannic acid | 5.39 ± 0.91 |  | 
